The results in this text go back to publication PMC9508125, “The evolutionary advantage of an aromatic clamp in plant family 3 glycoside exo-hydrolases” (Nature Communications, 2022).

Residue numbers refer to the chain shown, from its start.

Holding throughout (experiment): Steady-state apparent kinetic constants with substrates
Common to all, as to assay type: biochemical
What all share (settings): substance is the substrate

One assay concerns the target T1, HvExoI W434Y mutant (Hordeum vulgare, UniProt Q9XEI3, W459Y).
T1 sequence (Q9XEI3 26-630 W459Y): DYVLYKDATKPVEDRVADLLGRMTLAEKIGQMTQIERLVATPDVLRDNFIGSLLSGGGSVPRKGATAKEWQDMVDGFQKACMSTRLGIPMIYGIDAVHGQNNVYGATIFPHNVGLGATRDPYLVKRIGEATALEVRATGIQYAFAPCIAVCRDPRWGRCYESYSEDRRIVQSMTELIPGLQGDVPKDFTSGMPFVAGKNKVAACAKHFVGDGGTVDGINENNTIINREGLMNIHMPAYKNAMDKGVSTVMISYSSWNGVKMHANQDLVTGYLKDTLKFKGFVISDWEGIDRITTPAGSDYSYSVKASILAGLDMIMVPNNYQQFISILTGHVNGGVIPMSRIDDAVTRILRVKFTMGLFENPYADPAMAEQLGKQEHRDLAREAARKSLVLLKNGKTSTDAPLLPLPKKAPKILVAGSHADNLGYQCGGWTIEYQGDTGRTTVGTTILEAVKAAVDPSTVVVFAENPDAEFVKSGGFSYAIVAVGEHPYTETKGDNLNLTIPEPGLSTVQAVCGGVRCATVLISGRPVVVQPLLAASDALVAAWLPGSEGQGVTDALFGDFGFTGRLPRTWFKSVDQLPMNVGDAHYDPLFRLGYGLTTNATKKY
How it is done:
(§1) Dependency of activities of WT and mutant HvExoI on pH (McIlvaine buffers in the pH range of 3.5–8.5 at 30 °C) and temperature (100 mM sodium acetate buffer, pH 5.25, temperature range 0–80 °C, 15 min incubations) were determined using 0.2% (w/v) 4NP-Glc[21],[59]. Relative rates of hydrolysis of β-linked poly-, oligosaccharides, and aryl-glucosides were determined using near-homogenous HvExoI at 50 pmoles. […] Kinetic parameters were calculated from the analyses of Michaelis-Menten plots with Grafit 7.0.3[62] and processed by a proportional weighted fit, using nonlinear regression. The relative rates of hydrolysis, kinetic, and inhibition data were rounded to one or two decimal points (Supplementary Tables 2–4).

Another assay concerns the target T2, HvExoI W434H mutant (Hordeum vulgare, UniProt Q9XEI3, W459H).
T2 sequence (Q9XEI3 26-630 W459H): T1 sequence (Q9XEI3 26-630 W459Y) with Y434H
As to the method:
as §1

The target of assay [1] is T3, HvExoI W286F/W434F mutant (Hordeum vulgare, UniProt Q9XEI3, W311F/W459F).
T3 sequence (Q9XEI3 26-630 W311F/W459F): T1 sequence (Q9XEI3 26-630 W459Y) with W286F, Y434F
How it is done: as §1

A further assay deals with T4, HvExoI W286F mutant (Hordeum vulgare, UniProt Q9XEI3, W311F).
T4 sequence (Q9XEI3 26-630 W311F): T1 sequence (Q9XEI3 26-630 W459Y) with W286F, Y434W
How it is done:
as §1

The Km is the concentration of substrate that gives half-maximal velocity. One may read the kcat as the maximal rate divided by the concentration of active sites. On to laminarin, for which the results for the Km on HvExoI W434Y mutant, at HvExoI W434H mutant and on HvExoI W286F mutant were 100 ± 10 µM, 300 ± 20 µM and 200 ± 10 µM, respectively. In addition, the kcat turned out to be 0.8 ± 0.1 s⁻¹ on HvExoI W434Y mutant, 8.5 ± 0.9 s⁻¹ on HvExoI W434H mutant, 0.4 ± 0.1 s⁻¹ in assay [1] and 4.5 ± 0.3 s⁻¹ on HvExoI W286F mutant.
